Test results published in the supplement of paper PMC8253809.

Key:
[1] = system: DIPGX29 (H3.3 K27M diffuse intrinsic pontine glioma line); test: EC50 (inflection of fitted growth-inhibition curve) (log10 M)
In short: (§1)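 Compounds were delivered by pin tool as a 10-point threefold dilution series with a mean top concentration of 35 μM, in triplicate, to patient-derived pHGG/DIPG cell lines and astrocyte controls growing on 1% Geltrex-coated 384-well plates. Incubation lasted 7 days, or 3 days for iAstro, at 37 °C with 5% CO2. EC50 and maximal response (yFin) come from the three- or four-parameter log-logistic fit with the lowest AICc, applied to pooled, log2-transformed CellTiter-Glo luminescence normalised per plate to % activity between solvent (negative) and positive control wells.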

[2] = system: DIPGX37 (H3.3 K27M diffuse intrinsic pontine glioma line); test: as above
In short: as §1

[3] = system: DIPGX7 (H3.3 K27M diffuse intrinsic pontine glioma line); test: as above
In short: as §1

[4] = system: HABS (astrocyte control); test: as above
In short: as §1

[5] = system: HGGX2 (paediatric high-grade glioma line); test: as above
In short: as §1

[6] = system: HGGX6 (H3.3 G34R paediatric high-grade glioma line); test: as above
In short: as §1

[7] = system: SUDIPGXIX (diffuse intrinsic pontine glioma line); test: as above
In short: as §1

[8] = system: SUDIPGXVII (diffuse intrinsic pontine glioma line); test: as above
In short: as §1

[9] = system: SUDIPGXXI (diffuse intrinsic pontine glioma line); test: as above
In short: as §1

[10] = system: iAstro (astrocyte control); test: as above
In short: as §1

[11] = system: DIPGX29; test: maximal growth inhibition (yFin) relative to DMSO / staurosporine; higher = more efficacious
In short: as §1

[12] = system: DIPGX37; test: as above
In short: as §1

[13] = system: DIPGX7; test: as above
In short: as §1

[14] = system: HABS; test: as above
In short: as §1

[15] = system: HGGX2; test: as above
In short: as §1

[16] = system: HGGX6; test: as above
In short: as §1

[17] = system: SUDIPGXIX; test: as above
In short: as §1

[18] = system: SUDIPGXVII; test: as above
In short: as §1

[19] = system: SUDIPGXXI; test: as above
In short: as §1

[20] = system: iAstro; test: as above
In short: as §1

[21] = system: DIPGX29; test: area under dose-response curve of % growth inhibition (log2 RLU vs DMSO / staurosporine), 1e-11 to 1e-4 M (% x log10 M); higher = more growth inhibition
In short: (§2)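 Area under the curve was derived with the trapezoid rule from a fitted log-logistic curve, switching to a smoothing spline if the sigmoid fit failed. It rested on per-plate % activity between solvent and positive controls, calculated from log2-transformed CellTiter-Glo luminescence after 7 days of exposure (3 days for iAstro) at 37 °C, 5% CO2. Patient-derived pHGG/DIPG lines and astrocytes on 1% Geltrex-coated 384-well plates received a 10-point threefold dilution series, mean top concentration 35 μM, in triplicate.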

[22] = system: DIPGX37; test: as above
In short: as §2

[23] = system: DIPGX7; test: as above
In short: as §2

[24] = system: DIPGX9 (diffuse intrinsic pontine glioma line); test: as above
In short: as §2

[25] = system: HABS; test: as above
In short: as §2

[26] = system: HGGX2; test: as above
In short: as §2

[27] = system: HGGX39 (paediatric high-grade glioma line); test: as above
In short: as §2

[28] = system: HGGX42 (H3.3 G34R paediatric high-grade glioma line); test: as above
In short: as §2

[29] = system: HGGX6; test: as above
In short: as §2

[30] = system: SUDIPGIV (diffuse intrinsic pontine glioma line); test: as above
In short: as §2

[31] = system: SUDIPGVI (diffuse intrinsic pontine glioma line); test: as above
In short: as §2

[32] = system: SUDIPGXIII (diffuse intrinsic pontine glioma line); test: as above
In short: as §2

[33] = system: SUDIPGXIX; test: as above
In short: as §2

[34] = system: SUDIPGXVII; test: as above
In short: as §2

[35] = system: SUDIPGXXI; test: as above
In short: as §2

[36] = system: iAstro; test: as above
In short: as §2

[37] = system: DIPGX9; test: EC50 (inflection of fitted growth-inhibition curve) (log10 M)
In short: as §1

[38] = system: HGGX39; test: as above
In short: as §1

[39] = system: SUDIPGIV; test: as above
In short: as §1

[40] = system: SUDIPGVI; test: as above
In short: as §1

[41] = system: DIPGX9; test: maximal growth inhibition (yFin) relative to DMSO / staurosporine; higher = more efficacious
In short: as §1

[42] = system: HGGX39; test: as above
In short: as §1

[43] = system: SUDIPGIV; test: as above
In short: as §1

[44] = system: SUDIPGVI; test: as above
In short: as §1

[45] = system: SUDIPGXIII; test: EC50 (inflection of fitted growth-inhibition curve) (log10 M)
In short: as §1

[46] = system: SUDIPGXIII; test: maximal growth inhibition (yFin) relative to DMSO / staurosporine; higher = more efficacious
In short: as §1

[47] = system: HGGX42; test: EC50 (inflection of fitted growth-inhibition curve) (log10 M)
In short: as §1

[48] = system: HGGX42; test: maximal growth inhibition (yFin) relative to DMSO / staurosporine; higher = more efficacious
In short: as §1

CO[C@H]1C[C@@H]2CC[C@@H](C)[C@@](O)(O2)C(=O)C(=O)N2CCCC[C@H]2C(=O)O[C@H]([C@H](C)C[C@@H]2CC[C@@H](OC(=O)C(C)(CO)CO)[C@H](OC)C2)CC(=O)[C@H](C)/C=C(\C)[C@@H](O)[C@@H](OC)C(=O)[C@H](C)C[C@H](C)/C=C/C=C/C=C/1C [TEMSIROLIMUS]
EC50 (log10 M) [1]: -4.69
EC50 (log10 M) [2]: -4.85
EC50 (log10 M) [3]: -4.94
EC50 (log10 M) [4]: -4.85
EC50 (log10 M) [5]: -4.9
EC50 (log10 M) [6]: -4.79
EC50 (log10 M) [7]: -4.89
EC50 (log10 M) [8]: -4.96
EC50 (log10 M) [9]: -5.31
EC50 (log10 M) [10]: -4.98
maximal growth inhibition [11]: 116%
maximal growth inhibition [12]: 89.6%
maximal growth inhibition [13]: 63.7%
maximal growth inhibition [14]: 104%
maximal growth inhibition [15]: 77.4%
maximal growth inhibition [16]: 58%
maximal growth inhibition [17]: 96.2%
maximal growth inhibition [18]: 24.2%
maximal growth inhibition [19]: 124%
maximal growth inhibition [20]: 94.3%
area under dose-response curve [21]: 113
area under dose-response curve [22]: 123
area under dose-response curve [23]: 71
area under dose-response curve [24]: 198
area under dose-response curve [25]: 88.3
area under dose-response curve [26]: 86.5
area under dose-response curve [27]: 91.8
area under dose-response curve [28]: 121
area under dose-response curve [29]: 77.9
area under dose-response curve [30]: 83.2
area under dose-response curve [31]: 89
area under dose-response curve [32]: 53.9
area under dose-response curve [33]: 116
area under dose-response curve [34]: 40.1
area under dose-response curve [35]: 201
area under dose-response curve [36]: 101

COC(=O)Nc1nc2cc(C(=O)c3ccccc3)ccc2[nH]1 [MEBENDAZOLE]
EC50 (log10 M) [1]: -6.23
EC50 (log10 M) [2]: -6.7
EC50 (log10 M) [37]: -6.44
EC50 (log10 M) [4]: -6.45
EC50 (log10 M) [5]: -5.91
EC50 (log10 M) [38]: -6.61
EC50 (log10 M) [39]: -5.58
EC50 (log10 M) [40]: -5.51
EC50 (log10 M) [7]: -6.45
EC50 (log10 M) [9]: -6.53
EC50 (log10 M) [10]: -5.94
maximal growth inhibition [11]: 25.1%
maximal growth inhibition [12]: 36.4%
maximal growth inhibition [41]: 36.9%
maximal growth inhibition [14]: 32.9%
maximal growth inhibition [15]: 47.6%
maximal growth inhibition [42]: 28.5%
maximal growth inhibition [43]: 63.1%
maximal growth inhibition [44]: 22.1%
maximal growth inhibition [17]: 31.4%
maximal growth inhibition [19]: 98.3%
maximal growth inhibition [20]: 28.1%
area under dose-response curve [21]: 53.6
area under dose-response curve [22]: 94.4
area under dose-response curve [23]: 20.7
area under dose-response curve [24]: 90
area under dose-response curve [25]: 80.6
area under dose-response curve [26]: 93.5
area under dose-response curve [27]: 73.2
area under dose-response curve [28]: 38.7
area under dose-response curve [29]: 27.4
area under dose-response curve [30]: 93.5
area under dose-response curve [31]: 30.4
area under dose-response curve [32]: 17.5
area under dose-response curve [33]: 71
area under dose-response curve [34]: 40.1
area under dose-response curve [35]: 246
area under dose-response curve [36]: 47.3

CC(C)C[C@H](NC(=O)[C@H](Cc1ccccc1)NC(=O)c1cnccn1)B(O)O [BORTEZOMIB]
EC50 (log10 M) [6]: -7.84
EC50 (log10 M) [40]: -9.92
EC50 (log10 M) [45]: -9.99
EC50 (log10 M) [8]: -8.34
maximal growth inhibition [16]: 91.4%
maximal growth inhibition [44]: 95.6%
maximal growth inhibition [46]: 96.5%
maximal growth inhibition [18]: 91.2%
area under dose-response curve [21]: 287
area under dose-response curve [22]: 493
area under dose-response curve [23]: 575
area under dose-response curve [24]: 571
area under dose-response curve [25]: 506
area under dose-response curve [26]: 450
area under dose-response curve [27]: 455
area under dose-response curve [28]: 312
area under dose-response curve [29]: 347
area under dose-response curve [30]: 581
area under dose-response curve [31]: 499
area under dose-response curve [32]: 491
area under dose-response curve [33]: 568
area under dose-response curve [34]: 392
area under dose-response curve [35]: 634
area under dose-response curve [36]: 461

CC[C@@]1(O)C(=O)OCc2c1cc1n(c2=O)Cc2cc3c(CN(C)C)c(O)ccc3nc2-1 [TOPOTECAN]
EC50 (log10 M) [2]: -4.78
EC50 (log10 M) [37]: -6.06
EC50 (log10 M) [4]: -6.83
EC50 (log10 M) [38]: -5.44
EC50 (log10 M) [47]: -7.08
EC50 (log10 M) [39]: -7.62
EC50 (log10 M) [45]: -5.85
EC50 (log10 M) [7]: -5.74
EC50 (log10 M) [8]: -6.09
EC50 (log10 M) [9]: -8.44
EC50 (log10 M) [10]: -7.87
maximal growth inhibition [12]: 103%
maximal growth inhibition [41]: 96.3%
maximal growth inhibition [14]: 64.3%
maximal growth inhibition [42]: 85.3%
maximal growth inhibition [48]: 37.5%
maximal growth inhibition [43]: 87.4%
maximal growth inhibition [46]: 26%
maximal growth inhibition [17]: 98.6%
maximal growth inhibition [18]: 39%
maximal growth inhibition [19]: 79%
maximal growth inhibition [20]: 34.6%
area under dose-response curve [21]: 71
area under dose-response curve [22]: 150
area under dose-response curve [23]: 118
area under dose-response curve [24]: 287
area under dose-response curve [25]: 204
area under dose-response curve [26]: 121
area under dose-response curve [27]: 138
area under dose-response curve [28]: 119
area under dose-response curve [29]: 75.7
area under dose-response curve [30]: 317
area under dose-response curve [31]: 71.8
area under dose-response curve [32]: 60
area under dose-response curve [33]: 267
area under dose-response curve [34]: 84.5
area under dose-response curve [35]: 351
area under dose-response curve [36]: 134
